Reference: PubChem BioAssay (NCI)
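Test compounds were applied to cells in 96-well plates for 48 hours at 5 doses. GI50: concentration for 50% inhibition of growth. Definition used: TGI = concentration required for complete inhibition of growth.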

Columns and labels:
Experiment in all cases: NCI tumour cell line growth inhibition, 48 h
786-0 renal = test system: 786-0 renal
A498 renal = test system: A498 renal
A549 NSCLC = test system: A549 NSCLC
ACHN renal = test system: ACHN renal
BT-549 breast = test system: BT-549 breast
CAKI-1 renal = test system: CAKI-1 renal
CCRF-CEM leukemia = test system: CCRF-CEM leukemia
COLO 205 colon = test system: COLO 205 colon
DU-145 prostate = test system: DU-145 prostate
EKVX NSCLC = test system: EKVX NSCLC
HCC-2998 colon = test system: HCC-2998 colon
HCT-116 colon = test system: HCT-116 colon
HCT-15 colon = test system: HCT-15 colon
HL-60(TB) leukemia = test system: HL-60(TB) leukemia
HOP-62 NSCLC = test system: HOP-62 NSCLC
HOP-92 NSCLC = test system: HOP-92 NSCLC
HS 578T breast = test system: HS 578T breast
HT29 colon = test system: HT29 colon
IGROV1 ovarian = test system: IGROV1 ovarian
K-562 leukemia = test system: K-562 leukemia
KM12 colon = test system: KM12 colon
LOX IMVI melanoma = test system: LOX IMVI melanoma
M14 melanoma = test system: M14 melanoma
MALME-3M melanoma = test system: MALME-3M melanoma
MCF7 breast = test system: MCF7 breast
MDA-MB-231 breast = test system: MDA-MB-231 breast
MDA-MB-435 = test system: MDA-MB-435
MOLT-4 leukemia = test system: MOLT-4 leukemia
NCI-H226 lung = test system: NCI-H226 lung
NCI-H23 lung = test system: NCI-H23 lung
NCI-H460 lung = test system: NCI-H460 lung
NCI-H522 lung = test system: NCI-H522 lung
NCI/ADR-RES ovarian = test system: NCI/ADR-RES ovarian
OVCAR-3 ovarian = test system: OVCAR-3 ovarian
OVCAR-4 ovarian = test system: OVCAR-4 ovarian
OVCAR-5 ovarian = test system: OVCAR-5 ovarian
OVCAR-8 ovarian = test system: OVCAR-8 ovarian
PC-3 prostate = test system: PC-3 prostate
RPMI-8226 leukemia = test system: RPMI-8226 leukemia
RXF 393 renal = test system: RXF 393 renal
SF-268 CNS = test system: SF-268 CNS
SF-295 CNS = test system: SF-295 CNS
SF-539 CNS = test system: SF-539 CNS
SK-MEL-2 melanoma = test system: SK-MEL-2 melanoma
SK-MEL-28 melanoma = test system: SK-MEL-28 melanoma
SK-MEL-5 melanoma = test system: SK-MEL-5 melanoma
SK-OV-3 ovarian = test system: SK-OV-3 ovarian
SN12C renal = test system: SN12C renal
SNB-19 CNS = test system: SNB-19 CNS
SNB-75 CNS = test system: SNB-75 CNS
SR leukemia = test system: SR leukemia
SW-620 colon = test system: SW-620 colon
T-47D breast = test system: T-47D breast
TK-10 renal = test system: TK-10 renal
U251 CNS = test system: U251 CNS
UACC-257 melanoma = test system: UACC-257 melanoma
UACC-62 melanoma = test system: UACC-62 melanoma
UO-31 renal = test system: UO-31 renal

## Cc1cc(Cl)ccc1Nc1nc(C(F)(F)F)ccc1C(=O)N/N=C/c1c(Cl)cccc1Cl
786-0 renal
  GI50: 292 nM
  TGI: 1080 nM
A498 renal
  GI50: 473 nM
  TGI: > 22800 nM
A549 NSCLC
  GI50: 510 nM
  TGI: > 100000 nM
ACHN renal
  GI50: 298 nM
  TGI: 2030 nM
BT-549 breast
  GI50: 194 nM
  TGI: 675 nM
CAKI-1 renal
  GI50: 55.7 nM
  TGI: 3280 nM
CCRF-CEM leukemia
  GI50: 107 nM
  TGI: > 100000 nM
COLO 205 colon
  GI50: 358 nM
  TGI: 1240 nM
DU-145 prostate
  GI50: 548 nM
  TGI: > 100000 nM
EKVX NSCLC
  GI50: 211 nM
  TGI: 2970 nM
HCC-2998 colon
  GI50: 459 nM
  TGI: > 100000 nM
HCT-116 colon
  GI50: 287 nM
HCT-15 colon
  GI50: 145 nM
  TGI: > 100000 nM
HL-60(TB) leukemia
  GI50: 229 nM
  TGI: 530 nM
HOP-62 NSCLC
  GI50: 876 nM
  TGI: > 27200 nM
HOP-92 NSCLC
  GI50: 221 nM
  TGI: 664 nM
HS 578T breast
  GI50: 630 nM
  TGI: > 30000 nM
HT29 colon
  GI50: 443 nM
  TGI: > 100000 nM
IGROV1 ovarian
  GI50: 357 nM
  TGI: 6290 nM
K-562 leukemia
  GI50: 253 nM
KM12 colon
  GI50: 254 nM
  TGI: 1920 nM
LOX IMVI melanoma
  GI50: 257 nM
  TGI: > 100000 nM
M14 melanoma
  GI50: 536 nM
  TGI: > 100000 nM
MALME-3M melanoma
  GI50: 494 nM
  TGI: 2500 nM
MCF7 breast
  GI50: 233 nM
  TGI: 749 nM
MDA-MB-231 breast
  GI50: 249 nM
MDA-MB-435
  GI50: 357 nM
  TGI: > 100000 nM
MOLT-4 leukemia
  GI50: 157 nM
  TGI: 597 nM
NCI-H226 lung
  GI50: 243 nM
  TGI: 1740 nM
NCI-H23 lung
  GI50: 489 nM
  TGI: > 100000 nM
NCI-H460 lung
  GI50: 322 nM
  TGI: 4390 nM
NCI-H522 lung
  GI50: 306 nM
NCI/ADR-RES ovarian
  GI50: 445 nM
  TGI: > 100000 nM
OVCAR-3 ovarian
  GI50: 102 nM
  TGI: 380 nM
OVCAR-4 ovarian
  GI50: 289 nM
  TGI: > 100000 nM
OVCAR-5 ovarian
  GI50: 888 nM
  TGI: > 100000 nM
OVCAR-8 ovarian
  GI50: 445 nM
  TGI: > 100000 nM
PC-3 prostate
  GI50: 268 nM
RPMI-8226 leukemia
  GI50: 194 nM
RXF 393 renal
  GI50: 2040 nM
  TGI: > 100000 nM
SF-268 CNS
  GI50: 354 nM
  TGI: > 36400 nM
SF-295 CNS
  GI50: 74.1 nM
  TGI: 376 nM
SF-539 CNS
  GI50: 638 nM
  TGI: 4070 nM
SK-MEL-2 melanoma
  GI50: 272 nM
  TGI: 1330 nM
SK-MEL-28 melanoma
  GI50: 806 nM
  TGI: > 100000 nM
SK-MEL-5 melanoma
  GI50: 573 nM
  TGI: 2440 nM
SK-OV-3 ovarian
  GI50: 486 nM
  TGI: 3290 nM
SN12C renal
  GI50: 262 nM
  TGI: > 100000 nM
SNB-19 CNS
  GI50: 683 nM
  TGI: > 56600 nM
SNB-75 CNS
  GI50: 1340 nM
  TGI: > 100000 nM
SR leukemia
  GI50: 263 nM
  TGI: > 100000 nM
SW-620 colon
  GI50: 322 nM
  TGI: > 100000 nM
T-47D breast
  GI50: 331 nM
  TGI: 1980 nM
TK-10 renal
  GI50: 316 nM
  TGI: 1790 nM
U251 CNS
  GI50: 245 nM
  TGI: > 70800 nM
UACC-257 melanoma
  GI50: 393 nM
  TGI: > 100000 nM
UACC-62 melanoma
  GI50: 489 nM
  TGI: 6380 nM
UO-31 renal
  GI50: 301 nM

## Cc1cccc2c(=O)c3c(sc12)c(NCCN)nc1ccccc13
786-0 renal
  GI50: 917 nM
  TGI: 1690 nM
A498 renal
  GI50: 2720 nM
  TGI: 6920 nM
A549 NSCLC
  GI50: 823 nM
  TGI: 1630 nM
ACHN renal
  GI50: 762 nM
  TGI: 1430 nM
BT-549 breast
  GI50: 1330 nM
  TGI: 4070 nM
CAKI-1 renal
  GI50: 851 nM
  TGI: 2850 nM
CCRF-CEM leukemia
  GI50: 878 nM
  TGI: 1830 nM
COLO 205 colon
  GI50: 826 nM
  TGI: 1650 nM
DU-145 prostate
  GI50: 981 nM
  TGI: 1970 nM
EKVX NSCLC
  GI50: 815 nM
  TGI: 1710 nM
HCC-2998 colon
  GI50: 798 nM
  TGI: 1580 nM
HCT-116 colon
  GI50: 759 nM
  TGI: 1430 nM
HCT-15 colon
  GI50: 821 nM
  TGI: 1580 nM
HL-60(TB) leukemia
  GI50: 864 nM
  TGI: 1740 nM
HOP-62 NSCLC
  GI50: 728 nM
  TGI: 1650 nM
HOP-92 NSCLC
  GI50: 691 nM
  TGI: 2450 nM
HS 578T breast
  GI50: 1500 nM
  TGI: 4780 nM
HT29 colon
  GI50: 819 nM
  TGI: 1610 nM
IGROV1 ovarian
  GI50: 582 nM
  TGI: 1260 nM
K-562 leukemia
  GI50: 827 nM
  TGI: 1950 nM
KM12 colon
  GI50: 913 nM
  TGI: 1770 nM
LOX IMVI melanoma
  GI50: 783 nM
  TGI: 1480 nM
M14 melanoma
  GI50: 808 nM
  TGI: 1550 nM
MALME-3M melanoma
  GI50: 841 nM
  TGI: 1590 nM
MCF7 breast
  GI50: 678 nM
  TGI: 1420 nM
MDA-MB-231 breast
  GI50: 664 nM
  TGI: 1410 nM
MDA-MB-435
  GI50: 911 nM
  TGI: 1670 nM
MOLT-4 leukemia
  GI50: 887 nM
  TGI: 1800 nM
NCI-H226 lung
  GI50: 904 nM
  TGI: 2330 nM
NCI-H23 lung
  GI50: 870 nM
  TGI: 1960 nM
NCI-H460 lung
  GI50: 768 nM
  TGI: 1540 nM
NCI-H522 lung
  GI50: 863 nM
  TGI: 1750 nM
NCI/ADR-RES ovarian
  GI50: 909 nM
  TGI: 1950 nM
OVCAR-3 ovarian
  GI50: 888 nM
  TGI: 1790 nM
OVCAR-4 ovarian
  GI50: 935 nM
  TGI: 2160 nM
OVCAR-5 ovarian
  GI50: 834 nM
  TGI: 1600 nM
OVCAR-8 ovarian
  GI50: 885 nM
  TGI: 1980 nM
PC-3 prostate
  GI50: 717 nM
  TGI: 1490 nM
RPMI-8226 leukemia
  GI50: 851 nM
  TGI: 1890 nM
RXF 393 renal
  GI50: 1030 nM
  TGI: 2750 nM
SF-268 CNS
  GI50: 1180 nM
  TGI: 3880 nM
SF-295 CNS
  GI50: 886 nM
  TGI: 1700 nM
SF-539 CNS
  GI50: 917 nM
  TGI: 1770 nM
SK-MEL-2 melanoma
  GI50: 995 nM
  TGI: 2150 nM
SK-MEL-28 melanoma
  GI50: 936 nM
  TGI: 1700 nM
SK-MEL-5 melanoma
  GI50: 953 nM
  TGI: 1940 nM
SK-OV-3 ovarian
  GI50: 3170 nM
  TGI: 9900 nM
SN12C renal
  GI50: 754 nM
  TGI: 1540 nM
SNB-19 CNS
  GI50: 948 nM
  TGI: 2560 nM
SNB-75 CNS
  GI50: 448 nM
  TGI: 2790 nM
SR leukemia
  GI50: 719 nM
  TGI: 1850 nM
SW-620 colon
  GI50: 794 nM
  TGI: 1570 nM
T-47D breast
  GI50: 685 nM
  TGI: 1600 nM
TK-10 renal
  GI50: 1150 nM
  TGI: 1970 nM
U251 CNS
  GI50: 840 nM
  TGI: 1590 nM
UACC-257 melanoma
  GI50: 966 nM
  TGI: 1990 nM
UACC-62 melanoma
  GI50: 811 nM
  TGI: 1650 nM
UO-31 renal
  GI50: 541 nM
  TGI: 1150 nM
